Experimental data reported in ChEMBL document CHEMBL1144890, “3D QSAR analyses-guided rational design of novel ligands for the (alpha4)2(beta2)3 nicotinic acetylcholine receptor” (J Med Chem, 2003).

Biological target: Neuronal acetylcholine receptor; alpha4/beta2 (Rattus norvegicus, UniProt P09483+P12390)
Experiment: In vitro binding affinity towards (alpha-4)2(beta-2)3 neuronal nicotinic acetylcholine receptor in P2 membrane fractions of rat forebrain
Type: cell membranes

Neuronal acetylcholine receptor; alpha4/beta2, sequence (P09483 whole entry): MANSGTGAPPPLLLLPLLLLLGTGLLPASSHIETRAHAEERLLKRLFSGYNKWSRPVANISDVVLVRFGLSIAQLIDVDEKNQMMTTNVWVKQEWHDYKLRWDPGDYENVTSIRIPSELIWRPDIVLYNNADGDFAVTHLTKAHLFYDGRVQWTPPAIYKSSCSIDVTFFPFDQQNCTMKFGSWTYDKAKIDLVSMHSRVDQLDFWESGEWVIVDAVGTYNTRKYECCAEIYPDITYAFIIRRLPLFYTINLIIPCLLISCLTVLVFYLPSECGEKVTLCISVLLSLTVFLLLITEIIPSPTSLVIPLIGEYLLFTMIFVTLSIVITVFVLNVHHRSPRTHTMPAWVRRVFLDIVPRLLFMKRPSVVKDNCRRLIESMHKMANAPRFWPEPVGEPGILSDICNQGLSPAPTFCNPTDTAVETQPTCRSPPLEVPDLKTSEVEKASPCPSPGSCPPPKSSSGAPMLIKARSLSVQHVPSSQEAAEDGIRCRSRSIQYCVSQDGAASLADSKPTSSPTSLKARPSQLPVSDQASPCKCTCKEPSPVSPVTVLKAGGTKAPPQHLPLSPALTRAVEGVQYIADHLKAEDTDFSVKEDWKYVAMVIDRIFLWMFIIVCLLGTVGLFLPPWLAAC
Neuronal acetylcholine receptor; alpha4/beta2, sequence (P12390 whole entry): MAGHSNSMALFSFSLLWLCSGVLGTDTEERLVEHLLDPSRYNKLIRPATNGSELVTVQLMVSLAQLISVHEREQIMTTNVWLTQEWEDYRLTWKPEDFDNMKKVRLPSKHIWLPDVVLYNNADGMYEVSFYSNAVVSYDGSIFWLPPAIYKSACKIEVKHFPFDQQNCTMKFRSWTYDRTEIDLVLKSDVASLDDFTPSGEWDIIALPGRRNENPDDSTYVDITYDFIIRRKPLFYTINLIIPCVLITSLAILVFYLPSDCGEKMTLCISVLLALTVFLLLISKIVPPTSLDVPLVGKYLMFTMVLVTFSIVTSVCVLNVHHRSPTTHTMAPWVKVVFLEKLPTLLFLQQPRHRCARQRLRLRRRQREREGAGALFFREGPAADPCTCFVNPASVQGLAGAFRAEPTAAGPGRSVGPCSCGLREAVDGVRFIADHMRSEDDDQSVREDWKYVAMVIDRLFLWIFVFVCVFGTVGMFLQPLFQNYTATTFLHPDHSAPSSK

Compound | Ki
O=c1c(I)cc(I)c2n1CC1CNCC2C1 (centres undefined) | 0.525 nM
CN1C2CC=C(c3ccc(Cl)nc3)C1CC2 (centres undefined) | 8.91 nM
CN1C2CCC1C(c1ccc(Cl)nc1)C2 (centres undefined) | 0.0269 nM
C1=C(c2cnccn2)CC2CCC1N2 (centres undefined) | 30.9 nM
O=c1c(Br)cc(Br)c2n1CC1CNCC2C1 (centres undefined) | 10.7 nM
CN1C2CCC1CN(c1ccc(Cl)nn1)CC2 (centres undefined) | 0.55 nM
CN1C2CCC1CN(c1cncnc1)CC2 (centres undefined) | 2.09 nM
CN1C2CCC1C(c1ccc(F)nc1)C2 (centres undefined) | 0.0282 nM
C1=C(c2cnccn2)C2CCC(CC1)N2 (centres undefined) | 12 nM
O=c1ccc(I)c2n1CC1CNCC2C1 (centres undefined) | 0.229 nM
S=c1cccc2n1CC1CNCC2C1 (centres undefined) | 0.832 nM
c1nncc2c1CC1CCC2N1 (centres undefined) | 75.9 nM
O=c1ccc(Cl)c2n1CC1CNCC2C1 (centres undefined) | 2.51 nM
C1=C(c2cncnc2)C2CCC(C1)N2 (centres undefined) | 3.72 nM
Brc1ccc(C2CC3CCC2N3)cn1 (centres undefined) | 0.0447 nM
CC(=O)C1=CCC2CCC1N2 (centres undefined) | 93.3 nM
C1=C(c2ccnnc2)C2CCC(CC1)N2 (centres undefined) | 19.1 nM
C1=C(c2ccnnc2)CC2CCC1N2 (centres undefined) | 10 nM
c1ncc2c(n1)CC1CCC2N1 (centres undefined) | 676 nM
CN(C)C(=O)C1=CCC2CCC1N2 (centres undefined) | 61700 nM
Clc1nccnc1C1=CC2CCC(C1)N2 (centres undefined) | 209 nM
C1=C(c2cncnc2)C2CCN1CC2 | 12.3 nM

Compound | Ki
Clc1ccc(C2=CN3CCC2CC3)cn1 | 2.29 nM
O=c1c(Br)ccc2n1CC1CNCC2C1 (centres undefined) | 0.01 nM
CN1C2CC=C(c3cncnc3)C1CC2 (centres undefined) | 12.6 nM
C1=C(c2ccnnc2)C2CCC(C1)N2 (centres undefined) | 7.94 nM
CC(=O)C1=CCC2CCC1N2C (centres undefined) | 120 nM
CN(C)C(=S)C1=CCC2CCC1N2 (centres undefined) | 2450 nM
COC(=O)C1=C(c2cccnc2)CC2CCC1N2C (centres undefined) | 4900 nM
Clc1ncc(C2=CCC3CCC2N3)cn1 (centres undefined) | 2 nM
O=c1ccc(Br)c2n1CC1CNCC2C1 (centres undefined) | 0.309 nM
CN1C2CC=C(c3cccnc3)C1CC2 (centres undefined) | 9.55 nM
C1=C(c2cccnc2)C2CCC(CC1)N2 (centres undefined) | 0.0513 nM
Ic1ccc(C2CC3CCC2N3)cn1 (centres undefined) | 0.0251 nM
Fc1ccc(C2CC3CCC2N3)cn1 (centres undefined) | 0.0282 nM
CN1C2CCC1CN(c1ccnnc1)CC2 (centres undefined) | 0.525 nM
CN1C2CCC1CN(c1ccc(Cl)nc1)CC2 (centres undefined) | 0.871 nM
CN(C)C(=S)C1=CCC2CCC1N2C (centres undefined) | > 20000 nM
Clc1nccnc1C1=CCC2CCC1N2 (centres undefined) | 4170 nM
C1=C(c2cncnc2)CC2CCC1N2 (centres undefined) | 0.661 nM
Clc1ncc(C2=CCCC3CCC2N3)cn1 (centres undefined) | 0.151 nM
C1=C(c2cccnc2)CC2CCC1N2 (centres undefined) | 0.257 nM
Clc1ncc(C2=CC3CCC(C2)N3)cn1 (centres undefined) | 0.708 nM
CN1C2CCC1C(c1ccc(Br)nc1)C2 (centres undefined) | 0.0363 nM

Compound | Ki
O=c1c(I)ccc2n1CC1CNCC2C1 (centres undefined) | 0.017 nM
C1=C(c2cccnc2)C2CCC(C1)N2 (centres undefined) | 1.58 nM
Cc1cc(C2=CCC3CCC2N3C)on1 (centres undefined) | 31.6 nM
C1=C(c2cnccn2)C2CCC(C1)N2 (centres undefined) | 398 nM
CN1C2C=C(c3ccc(Cl)nc3)CC1CC2 (centres undefined) | 1.55 nM
C1=C(c2cncnc2)C2CCC(CC1)N2 (centres undefined) | 0.141 nM
c1nncc2c1CCC1CCC2N1 (centres undefined) | 34.7 nM
CN(C)C(=O)C1=CCC2CCC1N2C (centres undefined) | 2000 nM
O=c1c(Cl)ccc2n1CC1CNCC2C1 (centres undefined) | 0.0224 nM
COC(=O)C1=C(c2cncnc2)CC2CCC1N2C (centres undefined) | 214 nM
C1=C(c2cccnc2)C2CCN1CC2 | 7.59 nM
CN1C2CCC1CN(c1cnccn1)CC2 (centres undefined) | 263 nM
COC(=O)C1=C(c2ccc(Cl)nc2)CC2CCC1N2C (centres undefined) | 1660 nM
O=c1c(Cl)cc(Cl)c2n1CC1CNCC2C1 (centres undefined) | 2.51 nM
CN1CC2CC(C1)c1cccc(=O)n1C2 (centres undefined) | 5.75 nM
c1ncc2c(n1)C1CCC(C2)N1 (centres undefined) | > 10000 nM
CN1C2C=C(c3cncnc3)CC1CC2 (stereo in doubt; 33) | 43.7 nM
CN1C2C=C(c3cncnc3)CC1CC2 (stereo in doubt; 58) | 1.26 nM
O=c1cccc2n1C[C@@H]1CNC[C@H]2C1 [CYTISINICLINE] | 0.123 nM
c1cncc(C2CC3CCC2N3)c1 (centres undefined) [DESCHLOROEPIBATIDINE] | 0.0257 nM
